In test [1] the target is T1, 11β-HSD2 (Homo sapiens, UniProt P80365).
T1 construct: expressed in transfected cells; host or cells: HEK293 cells, stably transfected
T1 sequence (P80365 1-405): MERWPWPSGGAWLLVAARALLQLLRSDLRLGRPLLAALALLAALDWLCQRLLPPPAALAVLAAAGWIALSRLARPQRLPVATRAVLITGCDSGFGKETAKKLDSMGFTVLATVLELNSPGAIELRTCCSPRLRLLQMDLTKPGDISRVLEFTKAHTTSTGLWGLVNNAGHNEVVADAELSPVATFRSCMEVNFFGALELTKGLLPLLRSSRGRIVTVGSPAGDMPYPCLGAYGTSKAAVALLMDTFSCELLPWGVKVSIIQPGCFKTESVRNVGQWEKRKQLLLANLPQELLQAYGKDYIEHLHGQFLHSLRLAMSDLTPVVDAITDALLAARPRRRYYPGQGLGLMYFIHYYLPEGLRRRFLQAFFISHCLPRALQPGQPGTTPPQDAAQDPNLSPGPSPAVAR
Nature of the test: Determination of 11β-HSD2 inhibition in HEK293 cells stably transfected with the 11β-HSD2 gene (cortisol to cortisone, LC/MS). The format is cell-based. The following applies: assay concentrations of 10, 1, 0.1 µM, 2 hours. The procedure:
11β-HSD2 activity was determined in cells that are incubated with substrate (cortisol) and product (cortisone) is determined by LC/MS. Cells are plated at 2 x 10^4 cells/well in a 96-well tissue culture microplate and incubated overnight at @37° C in 5% CO2 95% O2. Compounds to be tested are solubilized in 100% DMSO at 10 mM and serially diluted in water and 10% DMSO to final concentration in 10% DMSO. 10 µl of each test dilution is dispensed into the well of a 96-well microplate (assay concentrations of 10, 1, 0.1 µM). Low and high control wells contain 10 µl of 10% DMSO. A solution of DMEM is prepared containing 1% penicillin, 1% streptomycin and 300 nM […]. Medium is removed from cell assay plate and DMEM solution (100 µl) added to each well. Cells are incubated for 2 hours @37° C in 5% CO2 95% O2. Following incubation medium is removed from each well into 500 µl ethyl acetate mixed by vortex and incubated at room temperature for 5 minutes. A calibration curve of known concentrations of cortisone in assay medium is also set up and added to 500 µl ethyl acetate vortexed and incubated as above. The supernatant is removed to a 96 deep well plate and dried down under liquid nitrogen at 65°C. Each well is solubilised in 100 µl 70:30 H2O:AC and removed to a 96 well v bottomed plate for LC/MS analysis.

The target in test [2] is T2, 11β-HSD1 (Homo sapiens, UniProt P28845). Nature of the test: Determination of 11β-HSD1 inhibition in HEK293 cells stably transfected with the 11β-HSD1 gene (cortisone to cortisol, LC/MS). The format is cell-based. More on the design: expressed in transfected cells; host or cells: HEK293 cells, stably transfected. The settings on record: 10 µM compound, 300 nM cortisone, 2 hours, read-out: HSD1 % inh in cells (10 µM). As to the method:
11β-HSD1 activity was determined in cells that are incubated with substrate (cortisone) and product (cortisol) is determined by LC/MS. Cells are plated at 2 x 10^4 cells/well in a 96-well tissue culture microplate and incubated overnight at […] in 5% CO2 95% O2. Compounds to be tested are solubilized in 100% DMSO at 10 mM and serially diluted in water and 10% DMSO to final concentration 100 µM in 10% DMSO. 10 µl of each test dilution is dispensed into the well of a 96-well microplate (assay concentration of 10 µM). Low and high control wells contain 10 µl of 10% DMSO. A solution of DMEM is prepared containing 1% penicillin, 1% streptomycin and 300 nM cortisone. Medium is removed from cell assay plate and DMEM solution (100 µl) added to each well. Cells are incubated for 2 hours […] in 5% CO2 95% O2. Following incubation medium is removed from each well into 500 µl ethyl acetate mixed by vortex and incubated at room temperature for 5 minutes. A calibration curve of known concentrations of cortisol in assay medium is also set up and added to 500 µl ethyl acetate vortexed and incubated as above. The supernatant is removed to a 96 deep well plate and dried down under liquid nitrogen at 65°C. Each well is solubilised in 100 µl 70:30 H2O:ACN and removed to a 96 well v bottomed plate for LC/MS analysis.

Test [3] deals with T2, 11β-HSD1. Kind of test: Determination of the 11β-HSD1 inhibition in Human Liver Microsomes (3H-cortisone to 3H-cortisol conversion, scintillation proximity assay). Also on record: tissue Celsis In-vitro Technologies; host or cells: mixed sex human liver microsomes. Format: biochemical. The settings on record: mixed sex, 1 mM NADPH, 37°C, 30 minutes, read-out: HSD1 IC50 in HLM. As to the method:
11β-HSD1 activity was determined in mixed sex, Human Liver Microsomes (Celsis In-vitro Technologies) by measuring the conversion of ^3H-cortisone to ^3H-cortisol. Percentage inhibition was determined relative to a no inhibitor control. 5 µg of Human Liver microsomes was pre-incubated at 37°C for 10 minutes with inhibitor (assay concentrations of 1, 0.5, 0.1, 0.05, 0.01, 0.005, 0.001 and 0.0005 µM) and 1 mM NADPH in a final volume of 90 µL Krebs buffer. 10 µL of 200 nM ^3H-cortisone was then added followed by incubation for at 37°C for a further 30 minutes. The assay was terminated by rapid freezing on dry ice. ^3H-cortisone to ^3H-cortisol conversion was determined in 50 µL of the defrosted reaction by capturing liberated ^3H-cortisol on 100 µL 1:8000 dilution anti-cortisol (HyTest Ltd)-coated scintillation proximity assay beads (protein A-coated YSi, GE Healthcare). The percentages of inhibition at every tested concentration were analyzed using a non-linear regression curve fitting (variable slope) by using the software GraphPad Prism 5.0.

T2 sequence (P28845 whole entry): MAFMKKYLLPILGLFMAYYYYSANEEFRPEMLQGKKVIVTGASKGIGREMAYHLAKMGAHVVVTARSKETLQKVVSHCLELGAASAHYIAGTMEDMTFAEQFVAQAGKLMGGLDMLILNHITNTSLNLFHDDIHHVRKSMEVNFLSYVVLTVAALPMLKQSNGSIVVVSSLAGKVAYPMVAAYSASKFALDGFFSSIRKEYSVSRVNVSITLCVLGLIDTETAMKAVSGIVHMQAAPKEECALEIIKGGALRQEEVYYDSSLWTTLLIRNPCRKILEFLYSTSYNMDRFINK

`CC(C)(C)C(=O)N1CC2[C@@H](C1)[C@H]1C=C[C@@H]2[C@@H]2C[C@H]12` (stereo partly drawn) [Example 7, 2,2-dimethyl-1-((4R,4aR,5aS,6S,6aS)-3,3a,4,4a,5,5a,6,6a-octahydro-4,6-ethenocyclopropa[f]isoindol-2(1H)-yl)propan-1-one]: the IC50 was at least 1000 nM in test [1] and 500 to 1000 nM in test [3]. The inhibition at 10 µM in test [2] stood at 85%.

Take `Nc1c(Cl)cc(C(=O)N2CC3[C@@H](C2)[C@H]2C=C[C@@H]3[C@@H]3C[C@H]23)cc1Cl` (stereo partly drawn) [Example 9, (4-amino-3,5-dichlorophenyl)((4R,4aR,5aS,6S,6aS)-3,3a,4,4a,5,5a,6,6a-octahydro-4,6-ethenocyclopropa[f]isoindol-2(1H)-yl)methanone]: the IC50 in test [1] was 100 to 1000 nM; in test [3] it was under 50 nM. The inhibition at 10 µM in test [2] was 77%.

For the compound `O=C(C1CCCCC1)N1CC2[C@@H](C1)[C@H]1C=C[C@@H]2[C@@H]2C[C@H]12` (stereo partly drawn) [Example 1, cyclohexyl((4R,4aR,5aS,6S,6aS)-3,3a,4,4a,5,5a,6,6a-octahydro-4,6-etheno-cyclopropa[f]isoindol-2(1H)-yl)methanone], the values for the IC50 in test [1] and in test [3] were at least 1000 nM and under 50 nM, respectively. The inhibition at 10 µM in test [2] was 100%.

As to `N#Cc1ccc(N2CCN(c3ccc(C(=O)N4CC5[C@@H](C4)[C@H]4C=C[C@@H]5[C@@H]5C[C@H]45)cn3)CC2)cc1` (stereo partly drawn) [Example 15, 4-(4-(5-((4R,4aR,5aS,6S,6aS)-1,2,3,3a,4,4a,5,5a,6,6a-decahydro-4,6-ethenocyclopropa[f]isoindole-2-carbonyl)pyridin-2-yl)piperazin-1-yl)benzonitrile], the IC50 in test [1] is at least 1000 nM; in test [3], 50 to 500 nM. In test [2], the inhibition at 10 µM came out at 100%.

`O=C(C1CC=CCC1)N1CC2[C@@H](C1)[C@H]1C=C[C@@H]2[C@@H]2C[C@H]12` (stereo partly drawn) [Example 10, cyclohex-3-en-1-yl((4R,4aR,5aS,6S,6aS)-3,3a,4,4a,5,5a,6,6a-octahydro-4,6-ethenocyclopropa[f]isoindol-2(1H)-yl)methanone]: the IC50 in test [1] is 100 to 1000 nM; in test [3] it was under 50 nM. The inhibition at 10 µM in test [2] stood at 41%.

For the compound `O=C(C1CCCCC1)N1CC2C3CCC(C4CC34)C2C1` [Example 2, cyclohexyl((4R,4aR,5aS,6S,6aS)-octahydro-4,6-ethanocyclopropa[f]iso-indol-2(1H)-yl)methanone], the IC50 in test [1] is under 100 nM; in test [3] it was under 50 nM. Also, in test [2], the inhibition at 10 µM was determined as 100%.

(Values after patent EP3235813A1, “AZA-TETRA-CYCLO DERIVATIVES” (CIDQO 2012, S.L., priority 2016, dated 2017).)
